# Biological target: T1, human α2A adrenergic receptor (Homo sapiens, UniProt P08913)
# T1 construct: expressed in transfected cells; host or cells: CHO (Chinese hamster ovary) cells
# T1 sequence (P08913 1-465): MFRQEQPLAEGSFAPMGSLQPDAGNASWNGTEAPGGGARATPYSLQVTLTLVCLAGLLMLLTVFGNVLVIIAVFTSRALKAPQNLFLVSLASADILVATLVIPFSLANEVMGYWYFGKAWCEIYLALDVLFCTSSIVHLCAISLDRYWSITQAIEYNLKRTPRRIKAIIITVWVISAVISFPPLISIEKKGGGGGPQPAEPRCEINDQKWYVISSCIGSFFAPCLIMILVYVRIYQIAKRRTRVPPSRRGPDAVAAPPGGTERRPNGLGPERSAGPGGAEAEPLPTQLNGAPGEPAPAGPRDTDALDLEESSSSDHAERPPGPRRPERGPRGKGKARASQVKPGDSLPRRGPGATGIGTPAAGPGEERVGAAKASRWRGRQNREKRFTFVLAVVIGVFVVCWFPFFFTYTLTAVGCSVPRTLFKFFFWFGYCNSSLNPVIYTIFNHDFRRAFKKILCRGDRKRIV
# Assay: functional α2A adrenergic receptor antagonism assay in CHO cells (morphological response, versus agonist UK-14304)
# Type: cell-based
# Details: for inhibition at 10 µM: CHO, 100 minus % maximum agonist activity; for % Maximum Agonist Activity (percentage of maximum agonist activity induced by UK-14304): CHO cells expressing human α2A receptor, reading 6 minutes after addition
# Description: The functional α2A adrenergic receptor antagonism assay was carried out in a platform in which the morphological response of CHO (Chinese hamster ovary) cells expressing α2A receptors was assessed. The functional assay was performed using as test items the (R)-pirlindole and the (rac)-pirlindole.
# The CHO cells, expressing the human α2A adrenergic receptor were plated the day before the experiment in an adequate culture medium. The compounds were added to the wells and readings were taken 6 minutes later. Responses from the samples were compared to control responses to assess agonist or antagonist activity. The percentage of maximal activity (% Maximum Activity) translates the percentage of agonist activity induced by the α2A agonist, UK-14304 (5-Bromo-N-(2-imidazolin-2-yl)-6-quinoxalinamine, 5-Bromo-N-(4,5-dihydro-1H-imidazol-2-yl)-6-quinoxalinamine, brimonidine) commercialized by the company Sigma-Aldrich.
"antagonist activity on α2A adrenergic receptors, times less than (R)-pirlindole (10 μM, ratio of inhibition versus (R)-pirlindole)",inhibition at 10 µM (test compound 10 μM),% Maximum Agonist Activity (percentage of maximum agonist activity induced by UK-14304) (test compound 1 μM),% Maximum Agonist Activity (percentage of maximum agonist activity induced by UK-14304) (test compound 5 μM),% Maximum Agonist Activity (percentage of maximum agonist activity induced by UK-14304) (test compound 10 μM),SMILES
~4 times,11%,98.47%,96.50%,89.02%,"Cc1ccc2c(c1)c1c3n2CCNC3CCC1 (racemic) [(rac)-pirlindole, 2,3,3a,4,5,6-hexahydro-8 methyl-1H-pyrazino [3,2,1-j, k] carbazole]"
–,40.3%,107.76%,87.37%,59.72%,Cc1ccc2c(c1)c1c3n2CCN[C@@H]3CCC1 [(R)-pirlindole]

# From US10533012B2, “(R)-pirlindole and its pharmaceutically acceptable salts for use in medicine” (TECNIMEDE SOCIEDADE TECNICO-MEDICINAL S.A., priority 2014, dated 2020)
